One assay has as its system Amaranthus hybridus. Description: Post-emergence herbicidal activity, efficacy on Amaranthus hybridus (Colby method). It counts as in vivo. The method, then: (§1) The following products were used for evaluating the weed control efficacy of present herbicidal combinations.
(§2) Methodology: Trials were carried out to evaluate the efficacy of the combinations comprising L-glufosinate ammonium and additional herbicides on Amaranthus genus weeds.
(§3) The soil used was sandy clay loam-sand: 68.0%; silt: 8.0%; clay: 24.0%.
(§4) All treatments were in 3 replications per treatment with a spray volume of 150 L/ha.
(§5) Efficacy Evaluation: The expected efficacy of the combination comprising L-glufosinate ammonium and additional herbicides was calculated using the well-established Colby method.
In the Colby method, the expected (or predicted) response of a combination of herbicides is calculated by taking the product of the observed response for each individual component of the combination when applied alone, divided by 100, and subtracting this value from the sum of the observed response for each component when applied alone. An unexpected enhancement in efficacy of the combination is then determined by comparing the observed response of the combination to the expected (or predicted) response as calculated from the observed response of each individual component alone. If the observed response of the combination is greater than the expected (or predicted) response, or stated conversely, if the difference between the observed and expected response is greater than zero, then the combination is said to be synergistic or unexpectedly effective (Colby, S. R., Weeds, 1967(15), p. 20-22). The Colby method requires only a single dose of each herbicide applied alone and the mixture of both doses. The formula used to calculate the expected efficacy (EE) which was compared with the observed efficacy (OE) to determine the efficacy of the present disclosure is explained herein:
The expected efficacy for a combination of two active ingredients is as follows:
The expected efficacy for a combination of three active ingredients is as follows:
[formula] • wherein, • A=Observed efficacy of active ingredient A at the same concentration as used in the mixture. • B=Observed efficacy of the active ingredient B at the same concentration as used in the mixture. • C=Observed efficacy of the active ingredient C at the same concentration as used in the mixture.
Experiment was conducted to assess the efficacy of herbicidal combination comprising L-glufosinate ammonium (glufosinate-P-ammonium) and saflufenacil to control the weed, Amaranthus hybridus.
The percentage efficacy was calculated after 3 days of applications (DAA). The target weed was Amaranthus hybridus, and the concentration of the herbicide and the results are recorded in Table 7.
Experiment was conducted to assess the efficacy of herbicidal combination comprising L-glufosinate ammonium, saflufenacil and triclopyr to control the weed Amaranthus hybridus.
The percentage efficacy was calculated after 3 DAA. The target weed was Amaranthus hybridus, and the concentration of the herbicide and the results are recorded in Table 8.
Experiment was conducted to assess the efficacy of herbicidal combination comprising L-glufosinate ammonium, saflufenacil and 2,4-D Choline to control the weed, Amaranthus hybridus.
The percentage efficacy was calculated after 3 DAA. The target weed was Amaranthus hybridus, and the concentration of the herbicide and the results are recorded in Table 9.
Experiment was conducted to assess the efficacy of herbicidal combination comprising L-glufosinate ammonium and quizalofop-ethyl to control the weed, Amaranthus hybridus.
The percentage efficacy was calculated after 3 DAA and 14 DAA. The target weed was Amaranthus hybridus, and the concentration of the herbicide and the results are recorded in Table 10.
Experiment was conducted to assess the efficacy of herbicidal combination comprising L-glufosinate ammonium and quizalofop-p-tefuryl to control the weed, Amaranthus hybridus
The percentage efficacy was calculated after 3 DAA and 14 DAA.

Another assay relates to Amaranthus viridis. Description: Post-emergence herbicidal activity, efficacy on Amaranthus viridis (Colby method). It counts as in vivo. As to the method:
as §1, §2, §3, §4, §5
In the Colby method, the expected (or predicted) response of a combination of herbicides is calculated by taking the product of the observed response for each individual component of the combination when applied alone, divided by 100, and subtracting this value from the sum of the observed response for each component when applied alone. An unexpected enhancement in efficacy of the combination is then determined by comparing the observed response of the combination to the expected (or predicted) response as calculated from the observed response of each individual component alone. […]
The percentage efficacy was calculated after 3 DAA and 7 DAA. The target weed was Amaranthus viridis, and the concentration of the herbicide and the results are recorded in Table 12. […]

The values that follow come from US20250160332A1, “HERBICIDAL COMBINATIONS AND A METHOD FOR CONTROLLING UNDESIRED VEGETATION” (UPL MAURITIUS LIMITED, priority 2022, published 2025).

Consider `C[N+](C)(C)CCO.O=C([O-])COc1ccc(Cl)cc1Cl` [2,4-D Choline], for which, in the assay with Amaranthus hybridus (Table 9, 3 DAA, 228 g a.i./ha), the “Observed efficacy (%) of 2,4-D Choline (228 g a.i./ha)” value is given as 95%.
On to `CS(=O)(=O)c1ccc(C(=O)C2C(=O)CCCC2=O)c([N+](=O)[O-])c1` [Mesotrione], for which the “Observed efficacy (%) of Mesotrione (100 g a.i./ha)” value came out at 10% in the assay on Amaranthus viridis (Table 12, 3 DAA) and 30% in the assay with Amaranthus viridis (Table 12, 7 DAA).
For `CC(C)N(C)S(=O)(=O)NC(=O)c1cc(-n2c(=O)cc(C(F)(F)F)n(C)c2=O)c(F)cc1Cl` [Saflufenacil], the “Observed efficacy (%) of Saflufenacil (30 g a.i./ha)” value in the assay with Amaranthus hybridus (Table 7, 3 DAA) is on record as 50%; in the assay with Amaranthus hybridus (Table 8, 3 DAA), 50%; in the assay with Amaranthus hybridus (Table 9, 3 DAA), 50%.
For the molecule `O=C(O)COc1nc(Cl)c(Cl)cc1Cl` [Triclopyr], the “Observed efficacy (%) of Triclopyr (228 g a.i./ha)” value in the assay with Amaranthus hybridus (Table 8, 3 DAA, 228 g a.i./ha) worked out at 95%.
For `CCOC(=O)C(C)Oc1ccc(Oc2cnc3cc(Cl)ccc3n2)cc1` (centres unmarked) [quizalofop-ethyl, Quizalofop-ethyl], the “Observed efficacy (%) of quizalofop-ethyl (25 g a.i./ha)” value in the assay with Amaranthus hybridus (Table 10, 3 DAA) worked out at 0%; in the assay with Amaranthus hybridus (Table 10, 14 DAA) it was 0%.
Turning to `C[C@@H](Oc1ccc(Oc2cnc3cc(Cl)ccc3n2)cc1)C(=O)OCC1CCCO1` (some centres unmarked) [quizalofop-p-tefuryl, Quizalofop-p-tefuryl], the “Observed efficacy (%) of quizalofop-p-tefuryl (25 g a.i./ha)” value in the assay with Amaranthus hybridus (Table 11, 3 DAA) came to 0%; in the assay on Amaranthus hybridus (Table 11, 14 DAA), 0%.
